Positions of bridges follow the written chain, without caps; N, C: chain ends. Non-standard residues stand in square brackets, D forms with d. Residues, ends and D or L forms follow the SMILES beside them. *: point of attachment. Biotin = O=C1N[C@H]2[C@H](CS[C@H]2CCCCC(=O)*)N1; Lys(Me2) = CN(C)CCCC[C@H](N)C(=O)O; R8 = C=CCCCCCC[C@@](C)(N)C(=O)O; Cba = N[C@@H](CC1CCC1)C(=O)O; S5 = C=CCCC[C@](C)(N)C(=O)O; Ahx = NCCCCCC(=O)O Where only a bound is given, the exact number is not on record here.

The text below walks through data of publication PMC5431883, “Enhancing Specific Disruption of Intracellular Protein Complexes by Hydrocarbon Stapled Peptides Using Lipid Based Delivery” (Scientific Reports, 2017).

T1 sequence (Q00987 1-125): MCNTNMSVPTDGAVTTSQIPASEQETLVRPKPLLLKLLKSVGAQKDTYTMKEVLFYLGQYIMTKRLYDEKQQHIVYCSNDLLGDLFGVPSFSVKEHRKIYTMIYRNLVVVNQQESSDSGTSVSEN

The test addresses T1, Mdm2 (1-125) (Homo sapiens, UniProt Q00987).
T1 construct: Purified MDM2 (1-125) protein was titrated against 50 nM carboxyfluorescein (FAM)-labeled; GST (N, cleaved yes); made in house; host or cells: E. coli BL21 DE3 (pGEX-6P-1)
Briefly: Mdm2 competitive fluorescence anisotropy assay (FAM-labeled 12/1 peptide displacement). Note: 250 nM MDM2. The format is binding. The note with it: read-out: Kd (apparent dissociation constant, competitive fluorescence anisotropy). As for the experimental part:
analyzed with SDS page gel and concentrated using a Centricon (3.5 kDa MWCO) concentrator, Millipore. Mdm2 protein samples were then dialyzed into a buffer solution containing 20mM Bis-Tris, pH 6.5, 0.05M NaCl with 1mM DTT and loaded onto a monoS column pre-equilibrated in buffer A (20mM Bis-Tris, pH 6.5, 1mM DTT). The column was then washed in 6 column volumes of buffer A and bound protein was eluted with a linear gradient of 1M NaCL over 25 column volumes. Protein fractions were analyzed with SDS page gel and concentrated using a Centricon (3.5 kDa MWCO) concentrator, Millipore.
Protein concentration was determined using A280 using an extinction coefficients […]
Mdm2 Competitive Fluorescence Anisotropy Assay and Kd Determination […]
Dissociation constants for titration of MDM2 against […]
equation shown below:25,26
[P] is the protein concentration (MDM2), [L] is the labeled peptide concentration, r is the anisotropy measured, r0 is the anisotropy of the free peptide, rb is the anisotropy of the MDM2– FAM-labeled peptide complex, Kd is the dissociation constant, [L]t is the total FAM labeled
(1 picture or pasted object on this page, not shown here) […]
peptide concentration, and [P]t is the total MDM2 concentration. […]
respective competing ligands in subsequent competition assays.
Apparent Kd values were determined for a variety of molecules via competitive fluorescence anisotropy experiments. Titrations were carried out with the concentration of MDM2 held constant […]
The competing molecules were then titrated against the complex of the FAM-labeled peptide and protein. Apparent Kd values were determined by fitting the experimental data to the equations shown below:26,27 […]
[L]st and [L]t denote labeled ligand and total unlabeled ligand input concentrations, respectively.
Kd2 is the dissociation constant of the interaction between the unlabeled ligand and the protein. In […]
all competitive types of experiments, it is assumed that [P]t > [L]st, otherwise considerable amounts of free labeled ligand would always be present and would interfere with measurements. Kd1 is the […]
experimentally determined as described in the previous paragraph. The FAM-labeled peptide was dissolved in dimethyl sulfoxide (DMSO) at 1 mM and diluted into experimental buffer. Readings were carried out with an Envision Multilabel Reader (PerkinElmer). Experiments were carried out […]
Tween 20 buffer. All titrations were carried out in triplicate. Curve-fitting was carried out using […]
Negative control titrations of the ligands under investigation were also carried out with the fluorescently labeled peptide (in the absence of MDM2) to ensure no interactions were occurring between the ligands and FAM-labeled peptide. […]
which would otherwise indicate an unintended interaction between the ligand and the FAM-labeled peptide to be displaced from the MDM2 binding site. […]
On to `CC(=O)N[C@H](C(=O)N[C@@H](CO)C(=O)N[C@@H](Cc1ccccc1)C(=O)NC(C)(C)C(=O)N[C@@H](CCC(=O)O)C(=O)N[C@@H](Cc1ccc(O)cc1)C(=O)N[C@@H](Cc1c[nH]c2ccccc12)C(=O)N[C@@H](C)C(=O)N[C@@H](CC(C)C)C(=O)N[C@@H](CC(C)C)C(=O)NC(C)(C)C(=O)N[C@@H](CCC(=O)O)C(N)=O)[C@@H](C)O` [VIP-76], for which the Kd amounted to 35.9 ± 2.3 nM.
`CC(=O)N[C@@H](Cc1c[nH]cn1)C(=O)N[C@@H](Cc1c[nH]cn1)C(=O)N[C@@H](Cc1c[nH]cn1)C(=O)NCCCCCC(=O)N[C@H](C(=O)N[C@@H](CO)C(=O)N[C@@H](Cc1ccccc1)C(=O)N[C@]1(C)CCCCCCC=CCCC[C@@](C)(C(N)=O)NC(=O)[C@H](CC(C)C)NC(=O)[C@H](CC(C)C)NC(=O)[C@H](C)NC(=O)[C@H](Cc2c[nH]c3ccccc23)NC(=O)[C@H](Cc2ccc(O)cc2)NC(=O)[C@H](CCC(=O)O)NC1=O)[C@@H](C)O` [VIP-79]: the Kd came out at 130 ± 11.7 nM.
Regarding `CC(=O)N[C@@H](CCCCN)C(=O)N[C@@H](CC(C)C)C(=O)N[C@@H](C)C(=O)N[C@@H](CCCCN)C(=O)NCCCCCC(=O)N[C@H](C(=O)N[C@@H](CO)C(=O)N[C@@H](Cc1ccccc1)C(=O)N[C@]1(C)CCCCCCC=CCCC[C@@](C)(C(N)=O)NC(=O)[C@H](CC(C)C)NC(=O)[C@H](CC(C)C)NC(=O)[C@H](C)NC(=O)[C@H](Cc2c[nH]c3ccccc23)NC(=O)[C@H](Cc2ccc(O)cc2)NC(=O)[C@H](CCC(=O)O)NC1=O)[C@@H](C)O` [VIP-122], the Kd turned out to be 3.7 ± 0.9 nM.
The value for `CC(=O)N[C@H](C(=O)N[C@@H](CO)C(=O)N[C@@H](Cc1ccccc1)C(=O)N[C@]1(C)CCCCCCC=CCCC[C@@](C)(C(=O)N[C@@H](CCC(=O)O)C(N)=O)NC(=O)[C@H](CC(C)C)NC(=O)[C@H](CC(C)C)NC(=O)[C@H](C)NC(=O)[C@H](Cc2c[nH]c3cc(Cl)ccc23)NC(=O)[C@H](Cc2ccc(O)cc2)NC(=O)[C@H](CCC(=O)O)NC1=O)[C@@H](C)O` [VIP-137] was under 1 nM; that for `CC(C)C[C@@H]1NC(=O)[C@H](C)NC(=O)[C@H](Cc2c[nH]c3ccccc23)NC(=O)[C@H](Cc2ccc(O)cc2)NC(=O)[C@H](CCC(=O)O)NC(=O)[C@](C)(NC(=O)[C@H](Cc2ccccc2)NC(=O)[C@H](CO)NC(=O)[C@@H](NC(=O)CCCCCNC(=O)CCCC[C@@H]2SC[C@@H]3NC(=O)N[C@@H]32)[C@@H](C)O)CCCCCCC=CCCC[C@@](C)(C(=O)N[C@@H](CCC(=O)O)C(=O)N[C@@H](CC(N)=O)C(=O)N[C@@H](Cc2ccc(O)cc2)C(N)=O)NC(=O)[C@H](CC(C)C)NC1=O` [VIP-87] was 46.2 ± 3.3 nM.
Regarding `CC(=O)N[C@@H](CCCCN)C(=O)N[C@@H](CCCCN)C(=O)NCCCCCC(=O)N[C@H](C(=O)N[C@@H](CO)C(=O)N[C@@H](Cc1ccccc1)C(=O)N[C@]1(C)CCCCCCC=CCCC[C@@](C)(C(=O)N[C@@H](CCC(=O)O)C(=O)N[C@@H](CC(N)=O)C(=O)N[C@@H](Cc2ccccc2)C(N)=O)NC(=O)[C@H](CC2CCC2)NC(=O)[C@H](CC(C)C)NC(=O)[C@H](C)NC(=O)[C@H](Cc2c[nH]c3ccccc23)NC(=O)[C@H](Cc2ccc(O)cc2)NC(=O)[C@H](CCC(=O)O)NC1=O)[C@@H](C)O` [VIP-124] (Ac-KK[Ahx]TSF[R8]EYWAL[Cba][S5]ENF-NH2; staple 7-14), the Kd came out at 2.7 ± 0.4 nM.
In the case of `CC(=O)N[C@@H](CCCCN)C(=O)N[C@@H](CC(C)C)C(=O)N[C@@H](C)C(=O)N[C@@H](CCCCN)C(=O)NCCCCCC(=O)N[C@H](C(=O)N[C@@H](CO)C(=O)N[C@@H](Cc1ccccc1)C(=O)N[C@]1(C)CCCCCCC=CCCC[C@@](C)(C(=O)N[C@@H](CCC(=O)O)C(=O)N[C@@H](CC(N)=O)C(=O)N[C@@H](Cc2ccccc2)C(N)=O)NC(=O)[C@H](CC(C)C)NC(=O)[C@H](CC(C)C)NC(=O)[C@H](C)NC(=O)[C@H](Cc2c[nH]c3ccccc23)NC(=O)[C@H](Cc2ccc(O)cc2)NC(=O)[C@H](CCC(=O)O)NC1=O)[C@@H](C)O` [VIP-129] (Ac-KLAK[Ahx]TSF[R8]EYWALL[S5]ENF-NH2; staple 9-16) it was 9.1 ± 1 nM; in that of `CC(C)C[C@@H]1NC(=O)[C@H](C)NC(=O)[C@H](Cc2c[nH]c3ccccc23)NC(=O)[C@H](Cc2ccc(O)cc2)NC(=O)[C@H](CCC(=O)O)NC(=O)[C@](C)(NC(=O)[C@H](Cc2ccccc2)NC(=O)[C@H](CO)NC(=O)[C@@H](NC(=O)CCCCCNC(=O)CCCC[C@@H]2SC[C@@H]3NC(=O)N[C@@H]32)[C@@H](C)O)CCCCCCC=CCCC[C@@](C)(C(=O)N[C@@H](CCC(=O)O)C(=O)N[C@@H](CC(N)=O)C(=O)N[C@@H](Cc2ccccc2)C(N)=O)NC(=O)[C@H](CC(C)C)NC1=O` [VIP-83], 24.6 ± 2.2 nM.
The value for `CC(=O)N[C@@H](Cc1c[nH]cn1)C(=O)N[C@@H](Cc1c[nH]cn1)C(=O)N[C@@H](Cc1c[nH]cn1)C(=O)NCCCCCC(=O)N[C@H](C(=O)N[C@@H](CO)C(=O)N[C@@H](Cc1ccccc1)C(=O)N[C@]1(C)CCCCCCC=CCCC[C@@](C)(C(=O)N[C@@H](CCC(=O)O)C(=O)N[C@@H](CC(N)=O)C(=O)N[C@@H](Cc2ccccc2)C(N)=O)NC(=O)[C@H](CC(C)C)NC(=O)[C@H](CC(C)C)NC(=O)[C@H](C)NC(=O)[C@H](Cc2c[nH]c3ccccc23)NC(=O)[C@H](Cc2ccc(O)cc2)NC(=O)[C@H](CCC(=O)O)NC1=O)[C@@H](C)O` [VIP-81] (Ac-HHH[Ahx]TSF[R8]EYWALL[S5]ENF-NH2; staple 8-15) was 61.2 ± 6.5 nM; that for `CC(=O)N[C@H](CCCCN)C(=O)N[C@H](CCCCN)C(=O)N[C@H](CCCCN)C(=O)NCCCCCC(=O)N[C@H](C(=O)N[C@@H](CO)C(=O)N[C@@H](Cc1ccccc1)C(=O)N[C@]1(C)CCCCCCC=CCCC[C@@](C)(C(=O)N[C@@H](CCC(=O)O)C(=O)N[C@@H](CC(N)=O)C(=O)N[C@@H](Cc2ccccc2)C(N)=O)NC(=O)[C@H](CC(C)C)NC(=O)[C@H](CC(C)C)NC(=O)[C@H](C)NC(=O)[C@H](Cc2c[nH]c3ccccc23)NC(=O)[C@H](Cc2ccc(O)cc2)NC(=O)[C@H](CCC(=O)O)NC1=O)[C@@H](C)O` [VIP-134] (Ac-[dK][dK][dK][Ahx]TSF[R8]EYWALL[S5]ENF-NH2; staple 8-15) was 6.2 ± 0.9 nM.
With `CC(C)C[C@@H]1NC(=O)[C@H](C)NC(=O)[C@H](Cc2c[nH]c3ccccc23)NC(=O)[C@H](Cc2ccc(O)cc2)NC(=O)[C@H](CCC(=O)O)NC(=O)[C@](C)(NC(=O)[C@H](Cc2ccccc2)NC(=O)[C@H](CO)NC(=O)[C@@H](NC(=O)CCCCCNC(=O)CCCC[C@@H]2SC[C@@H]3NC(=O)N[C@@H]32)[C@@H](C)O)CCCCCCC=CCCC[C@@](C)(C(N)=O)NC(=O)[C@H](CC2CCC2)NC1=O` [VIP-68] ({Biotin-Ahx}-TSF[R8]EYWAL[Cba][S5]-NH2; staple 4-11), the Kd is 41.6 ± 1.7 nM.
In the case of `CC(C)C[C@@H]1NC(=O)[C@H](C)NC(=O)[C@H](Cc2c[nH]c3ccccc23)NC(=O)[C@H](Cc2ccc(O)cc2)NC(=O)[C@H](CCC(=O)O)NC(=O)[C@](C)(NC(=O)[C@H](Cc2ccccc2)NC(=O)[C@H](CO)NC(=O)[C@@H](NC(=O)CCCCCNC(=O)CCCC[C@@H]2SC[C@@H]3NC(=O)N[C@@H]32)[C@@H](C)O)CCCCCCC=CCCC[C@@](C)(C(N)=O)NC(=O)[C@H](CC(C)C)NC1=O` [VIP-67] it was 100 ± 7.7 nM; in that of `CC(=O)N[C@@H](CCCCN(C)C)C(=O)N[C@@H](CCCCN(C)C)C(=O)NCCCCCC(=O)N[C@H](C(=O)N[C@@H](CO)C(=O)N[C@@H](Cc1ccccc1)C(=O)N[C@]1(C)CCCCCCC=CCCC[C@@](C)(C(=O)N[C@@H](CCC(=O)O)C(=O)N[C@@H](CC(N)=O)C(=O)N[C@@H](Cc2ccccc2)C(N)=O)NC(=O)[C@H](CC(C)C)NC(=O)[C@H](CC(C)C)NC(=O)[C@H](C)NC(=O)[C@H](Cc2c[nH]c3ccccc23)NC(=O)[C@H](Cc2ccc(O)cc2)NC(=O)[C@H](CCC(=O)O)NC1=O)[C@@H](C)O` [VIP-131] (Ac-[Lys(Me2)][Lys(Me2)][Ahx]TSF[R8]EYWALL[S5]ENF-NH2; staple 7-14), 25.6 ± 2.6 nM.
For the molecule `CC(=O)N[C@@H](CCCNC(=N)N)C(=O)N[C@@H](CCCNC(=N)N)C(=O)N[C@@H](CCCNC(=N)N)C(=O)NCCCCCC(=O)N[C@H](C(=O)N[C@@H](CO)C(=O)N[C@@H](Cc1ccccc1)C(=O)N[C@]1(C)CCCCCCC=CCCC[C@@](C)(C(=O)N[C@@H](CCC(=O)O)C(=O)N[C@@H](CC(N)=O)C(=O)N[C@@H](Cc2ccc(O)cc2)C(N)=O)NC(=O)[C@H](CC(C)C)NC(=O)[C@H](CC(C)C)NC(=O)[C@H](C)NC(=O)[C@H](Cc2c[nH]c3ccccc23)NC(=O)[C@H](Cc2ccc(O)cc2)NC(=O)[C@H](CCC(=O)O)NC1=O)[C@@H](C)O` [VIP-85] (Ac-RRR[Ahx]TSF[R8]EYWALL[S5]ENY-NH2; staple 8-15), the Kd was 44.9 ± 3.5 nM.
